# According to US11602519B1, “Method for preventing myocardial infarction using eucalyptol” (KING FAISAL UNIVERSITY, priority 2021, dated 2023):
# What was measured:
# Type in all cases: in vivo, Wister rats
# [1] = system: TLR pathway (TLR 2, TLR 4, MYD 88, and TRIF); assay: TLR pathway mRNA expression by real-time PCR in ISO-induced MI; settings: pretreatment 100, 200 mg/kg, 21 days, vs ISO induced MI control group
# Procedure: Animals were distributed into five groups randomly (n=6). The animals in normal and eucalyptol control groups were administered either saline or eucalyptol for 3 weeks and then saline (s.c) on the last two days of the experiment (20th and 21st days). The animals in the myocardial infarction (MI) control group were given saline orally for 3 weeks, then challenged with Isoproterenol (ISO) (85 mg/kg, s.c.) as stated before on the 20th and 21st days to induce MI. The animals in the eucalyptol pretreatment groups were pretreated with eucalyptol (either 100 or 200 mg/kg) orally for 3 weeks then confronted with ISO (85 mg/kg s.c.) on the last two days of the experiment. All experimental animals were killed 24 hrs after the second dose of ISO. Real-time PCR was preformed according to known techniques. Primer sequences used in this study were as follows: Bcl-2-[…] NO: 1), Bcl-2-[…] ID NO:2), Bax-[…] NO: 3), Bax-[…] ID NO: 4), […] ID NO: 5), […] ID NO: 6), […] ID NO: 7), […] ID NO: 8), MyD88 -[…] ID NO: 9), […] ID NO: 11), […] ID NO: 12), β-[…] NO: 13), β-[…] ID NO: 14).
# ISO induced MI animals [2] = assay: Cardiac enzymes by ELISA in ISO-induced MI
# Procedure: (§1) Animals were distributed into five groups randomly (n=6). The animals in normal and eucalyptol control groups were administered either saline or eucalyptol for 3 weeks and then saline (s.c) on the last two days of the experiment (20th and 21st days). The animals in the myocardial infarction (MI) control group were given saline orally for 3 weeks, then challenged with Isoproterenol (ISO) (85 mg/kg, s.c.) as stated before on the 20th and 21st days to induce MI. The animals in the eucalyptol pretreatment groups were pretreated with eucalyptol (either 100 or 200 mg/kg) orally for 3 weeks then confronted with ISO (85 mg/kg s.c.) on the last two days of the experiment. All experimental animals were killed 24 hrs after the second dose of ISO. The extracted heart tissues were homogenated in 10% phosphate buffer to be used for the measurement of numerous biochemical parameters, including cardiac enzymes, apoptotic markers, inflammatory mediators' markers, and total protein. ELISA kits were consumed to measure cardiac enzymes: CPK, CK-MB, cTnT, and cTnI; apoptotic markers: Caspase 3 and Caspase 9 and inflammatory mediators: TNF-α, IL-1β, and NFκB. All ELISA Kits were used according to the manufacturer's protocols and using a microplate reader SpectraMax i.3× (Molecular Devices, USA).
# [3] = system: Bax, Bcl2, Caspase 3 and 9; assay: Apoptotic status within the myocardium in ISO-induced MI (Bax, Bcl-2 mRNA; Caspase 3 and 9)
# Procedure: as §1, with “USA). Real-time PCR was preformed according to known techniques. Primer sequences used in this study were as follows: Bcl-2-[…] NO: 1), Bcl-2-[…] ID NO:2), Bax-[…] NO: 3), Bax-[…] ID NO: 4), […] ID NO: 5), […] ID NO: 6), […] ID NO: 7), […] ID NO: 8), MyD88 -[…] ID NO: 9), […] ID NO: 11), […] ID NO: 12), β-[…] NO: 13), β-[…] ID NO: 14).” for “USA).”
# [4] = system: TLR pathway (TLR 2, TLR 4, MYD 88, and TRIF); assay: TLR pathway protein expression by Western blot in cardiac tissue, ISO-induced MI
# Procedure: Animals were distributed into five groups randomly (n=6). The animals in normal and eucalyptol control groups were administered either saline or eucalyptol for 3 weeks and then saline (s.c) on the last two days of the experiment (20th and 21st days). The animals in the myocardial infarction (MI) control group were given saline orally for 3 weeks, then challenged with Isoproterenol (ISO) (85 mg/kg, s.c.) as stated before on the 20th and 21st days to induce MI. The animals in the eucalyptol pretreatment groups were pretreated with eucalyptol (either 100 or 200 mg/kg) orally for 3 weeks then confronted with ISO (85 mg/kg s.c.) on the last two days of the experiment. All experimental animals were killed 24 hrs after the second dose of ISO. For detection of the Toll-Like Receptors pathway protein expressions, Western blot was performed according to known methods. Values were mentioned as mean SEM (n=6). Densitometry inquiry was accomplished via Image software for Western analysis. Statistical analysis appraisal was done via GraphPad Prism 5.
# [5] = system: HSP-60 and inflammatory markers (TNF-α, IL-6 and NFκB); assay: HSP-60 and inflammatory mediators in ISO-induced MI
# Procedure: as §1
# ISO induced MI animals [6] = assay: Heart rate and ECG recording in ISO-induced myocardial infarction; settings: for Heart Rate / P Wave / P-R interval / QRS complex / QT interval / R-R interval / ST segment: mean ± SD, n=6
# Procedure: Animals were distributed into five groups randomly (n=6). The animals in normal and eucalyptol control groups were administered either saline or eucalyptol for 3 weeks and then saline (s.c) on the last two days of the experiment (20th and 21st days). The animals in the myocardial infarction (MI) control group were given saline orally for 3 weeks, then challenged with Isoproterenol (ISO) (85 mg/kg, s.c.) as stated before on the 20th and 21st days to induce MI. The animals in the eucalyptol pretreatment groups were pretreated with eucalyptol (either 100 or 200 mg/kg) orally for 3 weeks then confronted with ISO (85 mg/kg s.c.) on the last two days of the experiment. All experimental animals were killed 24 hrs after the second dose of ISO. At the end of the experiments, urethane-anesthetized rats (1.5 g/kg) were prone positioned to obtain uninterrupted ECG recordings using noninvasive computerized ECG apparatus from. Kent Scientific (USA). Heart rate and ECG components including ST segment, wave. QT, P-R and R-R intervals, and QRS complex were electronically measured.
# ISO induced MI animals [7] = assay: Infarct size determination (TTC staining) in ISO-induced MI; settings: pretreatment 100, 200 mg/kg, 21 days, vs ISO induced MI group
# Procedure: Animals were distributed into five groups randomly (n=6). The animals in normal and eucalyptol control groups were administered either saline or eucalyptol for 3 weeks and then saline (s.c) on the last two days of the experiment (20th and 21st days). The animals in the myocardial infarction (MI) control group were given saline orally for 3 weeks, then challenged with Isoproterenol (ISO) (85 mg/kg, s.c.) as stated before on the 20th and 21st days to induce MI. The animals in the eucalyptol pretreatment groups were pretreated with eucalyptol (either 100 or 200 mg/kg) orally for 3 weeks then confronted with ISO (85 mg/kg s.c.) on the last two days of the experiment. All experimental animals were killed 24 hrs after the second dose of ISO. Subsequent to ECG determination, blood samples were collected and the hearts were directly removed and balanced using an animal weighing scale prior to storage. The obtained blood samples were centrifuged and the serum from different experimental groups was frozen in −80° C. for further biochemical examinations. Frozen hearts were cut into 4-5 transverse incubated in 10% TTC (dissolved phosphate buffer, pH 7.4) for 25 min. at room temperature, fixed using 10% formaldehyde, and finally quantified using Image J® program (National Institutes of Health, University of Wisconsin).
# [8] = eucalyptol control group, no ISO
# [9] = pretreatment 100, 200 mg/kg, 21 days, vs ISO induced MI group
# [10] = pretreatment (100 and 200 mg/kg, 21 days) vs MI animals
# [11] = Eucalyptol 100 mg/kg orally 21 days, then ISO
# [12] = Eucalyptol 200 mg/kg orally 21 days, then ISO
# [13] = Eucalyptol control group, no ISO
compound,measurement,setting,value
"CC12CCC(CC1)C(C)(C)O2 [Eucalyptol, 1,8-cineole]",MYD 88 relative mRNA expression level,[1],considerably (p<0.05) declined
same,TLR 2 relative mRNA expression level,[1],considerably (p<0.05) declined
same,TLR 4 relative mRNA expression level,[1],considerably (p<0.05) declined
same,TRIF relative mRNA expression level,[1],considerably (p<0.05) declined
same,"cardiac enzymes (CPK, CK-MB, cTnT, cTnI)",ISO induced MI animals [2]; [8],normal
same,Cardiac Tropinine I (cTnI),ISO induced MI animals [2]; [9],significantly diminished
same,Cardiac Tropinine T (cTnT),ISO induced MI animals [2]; [9],significantly diminished
same,Creatine Kinase Myocardial Bound (CK-MB),ISO induced MI animals [2]; [9],significantly diminished
same,Creatine Phosphokinase (CPK),ISO induced MI animals [2]; [9],significantly diminished
same,"Bax, Bcl2, Caspase 3 and 9",[3]; [8],no effect
same,Bax relative mRNA expression,[3]; [10],deteriorated
same,Bcl-2 mRNA expression,[3]; [10],intensified
same,Caspase 3 and 9 activities,[3]; [10],deteriorated
same,TLR pathway protein content,[4]; [8],no effect
same,"post-myocardial infarction intensification of TLR pathway protein expression (TLR 2, TLR 4, MYD 88, TRIF)","[4]; pretreatment 100 and 200 mg/kg, cardiac tissue, Western blot",lessened
same,"HSP-60, IL-6 and NFκB, 200 mg/kg compared with 100 mg/kg",[5]; dose of 200 mg/kg vs 100 mg/kg,further significant reduction
same,"TNF-α, 200 mg/kg compared with 100 mg/kg",[5]; dose of 200 mg/kg vs 100 mg/kg,non-significant difference
same,"HSP-60 and inflammatory markers (TNF-α, IL-6 and NFκB)",[5]; [8],no effect
same,myocardial infarction elevation in HSP 60,[5]; pretreatment 100 and 200 mg/kg,diminished
same,"myocardial infarction elevation in inflammatory mediators (TNF-α, IL-6 and NFκB)",[5]; pretreatment 100 and 200 mg/kg,diminished
same,Heart Rate,"ISO induced MI animals [6]; Eucalyptol 100 mg/kg orally 21 days, then ISO 85 mg/kg s.c.",294 ± 21.06 ≠ beat/min
same,P Wave,ISO induced MI animals [6]; [11],0.015 ± 0.001 ≠ sec.
same,P-R interval,ISO induced MI animals [6]; [11],0.212 ± 0.012 ≠ sec.
same,QRS complex,ISO induced MI animals [6]; [11],0.038 ± 0.001 ≠ sec.
same,QT interval,ISO induced MI animals [6]; [11],0.064 ± 0.003 ≠ sec.
same,R-R interval,ISO induced MI animals [6]; [11],0.180 ± 0.004 ≠ sec.
same,ST segment,ISO induced MI animals [6]; [11],0.061 ± 0.009 ≠ mV
same,Heart Rate,"ISO induced MI animals [6]; Eucalyptol 200 mg/kg orally 21 days, then ISO 85 mg/kg s.c.",337.16 ± 14.98 ≠ beat/min
same,P Wave,ISO induced MI animals [6]; [12],0.015 ± 0.001 ≠ sec.
same,P-R interval,ISO induced MI animals [6]; [12],0.222 ± 0.05 ≠ sec.
same,QRS complex,ISO induced MI animals [6]; [12],0.035 ± 0.001 ≠ sec.
same,QT interval,ISO induced MI animals [6]; [12],0.061 ± 0.003 ≠ sec.
same,R-R interval,ISO induced MI animals [6]; [12],0.183 ± 0.056 ≠ sec.
same,ST segment,ISO induced MI animals [6]; [12],0.046 ± 0.009 ≠ mV
same,P Wave,ISO induced MI animals [6]; [13],0.019 ± 0.002 s
same,P-R interval,ISO induced MI animals [6]; [13],0.230 ± 0.012 s
same,QRS complex,ISO induced MI animals [6]; [13],0.042 ± 0.001 s
same,QT interval,ISO induced MI animals [6]; [13],0.047 ± 0.002 s
same,R-R interval,ISO induced MI animals [6]; [13],0.222 ± 0.012 s
same,ST segment,ISO induced MI animals [6]; [13],0.025 ± 0.002 mV
same,Heart Rate,"ISO induced MI animals [6]; Eucalyptol control group: eucalyptol for 3 weeks, saline s.c. instead of ISO",398.16 ± 43.67 beat/min
same,heart rate and electrocardiographic (ECG) patterns,ISO induced MI animals [6]; [8],normal
same,HR as well as ECG alterations,ISO induced MI animals [6]; [9],reversed
same,infarcted area magnitude (infarct size),ISO induced MI animals [7],significant infarcted restricting action
